In test [1] the test system is Male ICR mice. Kind of test: Mice swimming test. It is filed as in vivo. An excerpt: (§1) The following method is used for testing the antidepression effect of the compound of the present application. ICR mice or SD rats, gavaged for two successive weeks, were subjected to mice swimming test, mice tail suspension test and rats swimming test. See below for details of the tests and results.
Male ICR mice weighing 18 g to 20 g were used. They were fed on sterilized standard feed.
The compound administered in the test was 1-{2-[2,4-bis(trideuteriomethyl)phenylsulfanyl]phenyl}piperazine hydrobromic acid salt (XX for short). Vortioxetine (YY for short) was used as a control sample. Venlafaxine HCl (from Wyeth, USA) was used as a positive control.
Vortioxetine (15 mg) was combined with 10% hydroxypropyl-β-cyclodextrin to form a solution of 100 mL and was administered at daily dose of 3 mg/kg. 1-{2-[2,4-bis(trideuteriomethyl)phenylsulfanyl]phenyl}piperazine hydrobromic acid salt (15 mg and 7.5 mg) was combined with 10% hydroxypropyl-β-cyclodextrin to form two solutions of 100 mL and was administered at daily doses of 3 mg/kg and 1.5 mg/kg, respectively. Venlafaxine HCl (75 mg) was combined with 0.5% CMC-Na to form a solution of 100 mL and was administered at daily dose of […].
A recording and analysis system for small-animal behavior (Noldus) was used.
All the eighty mice were subjected to prescreening one day before the administration. The mice, fasted for 4 hours were put in a round glass tank (ø 14 cm×h 20 cm, with water of 10 cm depth and at a temperature of 25° C.) to swim. […] The whole swimming course was recorded by the video and the data were collected and analyzed automatically by Noldus software.
The forty qualified mice were divided into 4 groups, each of which had 10 mice, according to the Excel random grouping.
The medicaments were administered to each group by gavage with the amount of 0.2 ml per 10 g of body weight, once a day for 14 successive days. One hour later after the last oral administration, the mice were allowed to swim for 6 min. The video recorded the whole swimming course, and the Noldus software automatically collected and analyzed the data.
The data was given as “average±standard deviation” (x±s). One-way analysis of variance (one-way ANOVA) was used for data difference statistics. Differences among the groups were determined by P<0.05.

Test [2] relates to Male ICR mice. The test is described as follows: Mice tail suspension test. It is filed as in vivo.
Description: as §1
The animals, medicaments, calculation of dosages to the mice, preparation of drug solution and apparatus are the same as those in the mice swimming test.
The medicaments were correspondingly administered by gavage, once a day, to the animals in the groups for 14 successive days, with the amount of 0.2 ml per 10 g of body weight. The mice were subjected to tail suspension one hour later after the last oral administration. The suspension continued for 6 min.
The data was given as “average±standard deviation” (x±s). One-way analysis of variance (ANOVA) was used for data difference statistics. Differences among the groups were determined by P<0.05.

Where [3] appears, read: 30 mg/kg gavage, two successive weeks.

Where a name gives a salt, the structure may show the parent alone.

As for `COc1ccc(C(CN(C)C)C2(O)CCCCC2)cc1` (stereo not shown) [Venlafaxine, Venlafaxine HCl, reference compound], the “effect on length of time that the mice stopped swimming vs blank control” value with Male ICR mice [1] (setting [3]) is reported as “markedly shortened”. Besides, in the test with Male ICR mice [1] (mice, gavage once a day for 14 days, 30 mg/kg, n = 10, x ± s), the “Duration without Movement within the Last 4 min of the Whole 6 min” value is given as 173.6 ± 31.4 s. Moreover, in the test on Male ICR mice [2] (setting [3]), the “effect on length of time that the tail-suspended mice stopped moving vs blank control” value was “markedly shortened”. Further, in the test on Male ICR mice [2] (mice tail suspension, gavage 14 days, 30 mg/kg, n = 10, x ± s), the “Duration without Move within 6 min” value came to 180.6 ± 661.8 s.

Values taken from patent US9896423B2, “Deuterium substituted 1-[2-(2,4-dimethyl-phenylsulfanyl)-phenyl]piperazine compound or derivatives thereof, and pharmaceutical composition and use thereof” (Jiangsu Jibeier Pharmaceutical Co. Ltd., priority 2014, dated 2018).
